For one series, the target named is T1, FLhPIF1 (Homo sapiens, UniProt Q9H611).
T1 construct: Full length human PIF1 (FLhPIF1) was expressed and purified as a His-SUMO fusion; His-SUMO (cleaved yes); made in house; 'following similar protocols' to hPIF1HD (ArcticExpress BL21(DE3) E. coli)
T1 sequence (Q9H611 1-641): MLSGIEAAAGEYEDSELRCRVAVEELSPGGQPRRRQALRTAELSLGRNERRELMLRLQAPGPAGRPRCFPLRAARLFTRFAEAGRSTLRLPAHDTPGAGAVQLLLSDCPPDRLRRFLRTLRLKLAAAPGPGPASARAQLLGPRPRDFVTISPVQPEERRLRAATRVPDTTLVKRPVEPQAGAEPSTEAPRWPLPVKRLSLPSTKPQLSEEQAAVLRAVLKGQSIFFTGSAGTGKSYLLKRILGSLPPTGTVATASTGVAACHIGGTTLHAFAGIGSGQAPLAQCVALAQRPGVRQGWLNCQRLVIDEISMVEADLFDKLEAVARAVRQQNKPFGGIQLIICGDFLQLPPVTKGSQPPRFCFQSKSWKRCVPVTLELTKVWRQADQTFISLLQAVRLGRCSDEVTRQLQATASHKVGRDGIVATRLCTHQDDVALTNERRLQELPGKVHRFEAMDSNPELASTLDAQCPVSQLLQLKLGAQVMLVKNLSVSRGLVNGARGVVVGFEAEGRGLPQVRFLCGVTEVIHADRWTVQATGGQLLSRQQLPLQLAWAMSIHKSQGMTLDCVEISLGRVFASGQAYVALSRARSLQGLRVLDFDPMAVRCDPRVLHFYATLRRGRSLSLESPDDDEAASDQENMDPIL
Nature of the series: helicase assay after pre-incubation of SMI with FLhPIF1. The following applies: for IC50: read-out: IC50 for dsDNA unwinding by FLhPIF1 following pre-incubation. It counts as biochemical. As for the experimental part:
Helicase activity was assayed using a radiometric strand displacement assay employing a partially single- and double-stranded substrate generated by annealing two oligonucleotides: 5′-(T)55-[…] and 5′-[…], as described previously ([19],[28]). The reaction buffer was 20 mM HEPES–NaOH pH 7.5, 20 mM NaCl, 5.5 mM MgCl2, 5 mM ATP, 1 mM DTT and 0.1 mg/ml BSA. SMIs (100 mM stocks in DMSO) were assayed at up to 2 mM without pre-incubation with FLhPIF1, unless otherwise stated. Reactions (0.1 nM substrate) were incubated at 37°C for 20 min, followed by addition of 0.2 volumes of 120 mM EDTA, 0.6% (w/v) SDS, 60% (v/v) glycerol and 0.1% (w/v) bromophenol blue before resolution of products by polyacrylamide gel electrophoresis (8%, 19:1 acrylamide:bis-acrylamide), 1× TBE (90 mM Tris–borate/2 mM EDTA, pH 8.3 with 0.05% (w/v) SDS buffer). Dried gels were exposed to phosphorimaging plates (Fujifilm) for imaging and quantification (Fuji FLA3000, image gauge V3.3 software). IC50 values were analysed by non-linear regression (variable slope) using GraphPad Prism.
First, we screened inhibitory activity of the SMIs listed in Table 1, following incubation of 100 nM FLhPIF1 with 100 μM SMI for 1 h at 22°C in the absence of substrates (ATP and DNA), before a 1:10 dilution into helicase reactions. […] Next, compounds 2, 5, 6 and 11, along with 4 and 1D were selected for analysis in a pre-incubation time-course (100 nM FLhPIF1, 100 μM SMI), up to 3 h before assaying helicase activity.
(§1) In parallel, IC50 values for inhibition of human UPF1 (hUPF1) helicase activity by the SMIs were also determined under the same conditions. UPF1-like SF1B helicases are the most closely related family of helicases to PIF1, with significant structural and mechanistic similarity ([52]).
(§2) Figure 6. SMI IC50 for dsDNA unwinding determined following pre-incubation. SMIs (0.0078–2 mM SMI) were incubated for 2 h at 22°C (100 nM FLhPIF1 or hUPF1) before dilution (1:10) in the standard helicase assay (0.1 nM DNA substrate). For 1D and 6, structures, electrophoresis of FLhPIF1 reaction product and graphs for IC50 value determination are shown. The graphed data include the activity of SMIs towards hUPF1 and IC50 values obtained are given. See Supplementary Figure S14 for the complete data set. TEXT PRINTED IN THE PICTURE: 1D: IC50 (μM): PIF1: 978 ± 221; IC50 (μM): UPF1: N.D. | 6: IC50 (μM): PIF1: 79.4 ± 16; IC50 (μM): UPF1: 1750 ± 426

For series [1], the target named is T2, human UPF1 (hUPF1) helicase (Homo sapiens, UniProt Q92900).
T2 construct: Full-length human UPF1 helicase was expressed and purified as described previously; made in house
T2 sequence (Q92900 1-1129): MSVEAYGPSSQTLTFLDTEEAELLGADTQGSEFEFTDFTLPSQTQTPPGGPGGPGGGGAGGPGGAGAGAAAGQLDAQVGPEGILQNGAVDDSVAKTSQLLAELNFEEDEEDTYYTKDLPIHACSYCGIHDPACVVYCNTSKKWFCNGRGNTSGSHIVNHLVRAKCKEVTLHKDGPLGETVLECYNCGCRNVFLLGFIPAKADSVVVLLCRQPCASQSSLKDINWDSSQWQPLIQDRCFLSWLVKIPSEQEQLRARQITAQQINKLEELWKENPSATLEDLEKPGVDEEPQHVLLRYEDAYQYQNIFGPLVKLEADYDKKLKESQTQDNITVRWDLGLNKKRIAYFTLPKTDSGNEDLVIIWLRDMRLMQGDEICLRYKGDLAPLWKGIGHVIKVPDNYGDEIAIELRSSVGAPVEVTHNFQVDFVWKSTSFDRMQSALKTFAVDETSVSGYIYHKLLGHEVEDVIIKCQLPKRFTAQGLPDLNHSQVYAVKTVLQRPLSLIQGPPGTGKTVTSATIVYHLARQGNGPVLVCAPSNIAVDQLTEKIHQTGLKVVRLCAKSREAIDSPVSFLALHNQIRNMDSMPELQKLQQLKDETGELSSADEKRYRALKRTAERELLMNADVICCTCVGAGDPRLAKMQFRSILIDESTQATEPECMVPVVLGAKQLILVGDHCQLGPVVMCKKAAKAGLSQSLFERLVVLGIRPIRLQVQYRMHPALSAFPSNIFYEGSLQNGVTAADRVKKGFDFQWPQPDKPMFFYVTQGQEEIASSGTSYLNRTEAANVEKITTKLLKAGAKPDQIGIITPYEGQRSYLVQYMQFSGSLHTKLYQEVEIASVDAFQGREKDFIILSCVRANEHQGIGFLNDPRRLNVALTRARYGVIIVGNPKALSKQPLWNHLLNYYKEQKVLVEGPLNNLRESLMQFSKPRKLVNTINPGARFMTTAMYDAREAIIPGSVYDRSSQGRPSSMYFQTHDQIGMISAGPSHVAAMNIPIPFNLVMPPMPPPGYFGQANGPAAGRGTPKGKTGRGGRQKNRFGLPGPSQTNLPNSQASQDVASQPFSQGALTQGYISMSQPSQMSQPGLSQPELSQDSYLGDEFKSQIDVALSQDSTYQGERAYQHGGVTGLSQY
Nature of the series: helicase assay after pre-incubation of SMI with hUPF1. It counts as biochemical. The following applies: 2 h pre-incubation. As for the experimental part: Full-length human UPF1 helicase was expressed and purified as described previously ([36]).
as §1, §2
Supplementary Figure 14. IC50 DNA unwinding determined following 2 hours pre-incubation. […] The assay procedure and reaction conditions for each helicase were identical (see methods, main manuscript). The figure complements main manuscript Figure 6. […] The reason for this is unclear.

In another series the target is T3, hPIF1HD wild type (Homo sapiens, UniProt Q9H611 206-620).
T3 sequence: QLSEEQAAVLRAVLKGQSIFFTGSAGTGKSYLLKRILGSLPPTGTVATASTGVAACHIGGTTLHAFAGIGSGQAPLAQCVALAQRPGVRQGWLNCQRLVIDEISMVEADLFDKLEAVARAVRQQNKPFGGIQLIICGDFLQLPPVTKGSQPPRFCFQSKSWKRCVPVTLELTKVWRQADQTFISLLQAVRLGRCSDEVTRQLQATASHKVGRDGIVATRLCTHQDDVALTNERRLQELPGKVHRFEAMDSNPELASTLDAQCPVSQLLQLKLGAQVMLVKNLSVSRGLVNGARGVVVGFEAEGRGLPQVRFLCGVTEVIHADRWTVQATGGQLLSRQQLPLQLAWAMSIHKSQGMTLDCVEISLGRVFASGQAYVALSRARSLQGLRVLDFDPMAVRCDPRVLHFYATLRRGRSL
Nature of the series: EMSA; 5 mM AMP-PNP, 5.5 mM MgCl2; 2 nM protein, 0.25 nM DNA; no inhibitor; 20 mM HEPES-NaOH pH 7.5, 20 mM NaCl, 5.5 mM MgCl2, 5 mM AMP-PNP, 1 mM DTT, 0.1 mg/ml BSA; 0.25 nM DNA; binding temperature not stated explicitly (helicase assay conditions 37 C); 5% PAGE, 0.25x TBE. Particulars: protein: recombinant; tags: N-terminal His6 removed; GSRM cloning residues remain; label: 5'-32P; single strand.

Where two headings read alike, the source gives them in different places.

`CC(=O)Nc1ccc(-c2csc(N)n2)cc1` [Compound 1D]: the IC50 at FLhPIF1 (2 h pre-incubation at 22°C with 100 nM FLhPIF1, then 1:10 dilution into helicase assay) was 978 ± 221 µM; on FLhPIF1 (2 h pre-incubation at 22°C), roughly 1000 µM. For the same molecule, at FLhPIF1 (3 h pre-incubation, 100 nM FLhPIF1, 100 μM SMI), the “increase in inhibition of FLhPIF1 DNA unwinding after pre-incubation” value is 5–10%. Moreover, in series [1], the “inhibition of hUPF1 helicase” value is recorded as “minimal inhibition”.

B1: oligo d(T)55 (ssDNA)
DNA: TTTTTTTTTTTTTTTTTTTTTTTTTTTTTTTTTTTTTTTTTTTTTTTTTTTTTTT
For the molecule B1, the binding result in the series with hPIF1HD wild type is “binds”.

Values taken from publication PMC11551755, “Structure-based discovery of first inhibitors targeting the helicase activity of human PIF1” (Nucleic Acids Research, 2024).
